Like-named read-outs stand apart in the source and are kept apart here.
Key:
[1] = system: ethanol-induced gastric ulcers (lesions); experiment: Ethanol-induced ulcer model in the rat; format: in vivo, Adult male Long-Evans rats; conditions: for inhibition in vivo at 30 mg/kg: 30 mg/kg p.o.; for inhibition in vivo at 50 mg/kg: 50 mg/kg p.o.
Procedure: The effectiveness of the compounds of Formula I as cytoprotective agents was determined by an ethanol-induced ulcer model in the rat. This model is a modification of the procedure described by A. Robert in Scand. J. Gastroenterology 16: (Suppl. 67): 243 (1981). This model which screens for cytoprotective compounds is based on the ability of 100% ethanol to produce gastric ulcers (primarily in the fundic region of the stomach) in rats in a dose-related manner. Further details of the model are described below.
Adult male Long-Evans rats weighing 275-300 grams (Blue Spruce Farm, Alton, N.Y.) are used. Animals are housed individually in stainless steel cages with wire-mesh bottoms. The housing battery is arranged into six groups of five each, individually numbered from rat number 1, group 1 to rat number 5, group 6. Food and water are removed 24 and 18 hours, respectively, prior to testing. On the following day animals receive the test compound either p.o., s.c. or i.p. 30 minutes or more before administration of 100% ethanol (3.0 ml/kg) by gavage. Sixty minutes later the animals are sacrificed by administration of T-61 (Hoechst), 0.2 ml i.p.
An abdominal incision is made and, after clamping the esophagus just above the esophageal sphincter with tweezers, the stomach is carefully lifted from the abdominal cavity. Two cuts are made approximately 1/2" below the pyloric valve and 1/2" above the esophageal sphincter, and the stomach removed and set aside. This step is very rapid (2-3 seconds) and no loss of gastric contents is apparent. The size of the stomach including contents is noted as small, medium or large. Stomachs are cut open along the lesser curvature and the contents expressed into graduated centrifuge tubes.
Under these conditions, ethanol produces prominent macroscopic lesions in the corpus, but gross macroscopic changes are only very rarely observed in the forestomach. […] In addition, absence of the forestomach allows the remaining stomach to lie flat on a surface for photography and examination without undue stretching of the tissue. For these reasons, the forestomach (along with nongastric tissue) is removed.
The remaining corpus and antrum are rinsed in water and placed flat in a standard position. The tissue is photographed with a Polaroid close-up camera and scoring of lesions is done from this permanent record. Each photograph includes a reference scale in mm. Two scoring systems are used. For screening purposes each stomach is graded on a scale of 0 to 3 as described below:
Where more precise data are needed, e,g, in determining the ED50 for a compound, the total lesion area in mm is measured. Barely visible spots (petechiae) are scored as 1 mm each. For each treatment group, an average score is calculated. From this, the percent inhibition of lesion formation, I, is calculated as:
I=Lesion Score (controls)-Lesion Score(treated)X 100 Lesion Score(controls)
In dose-response studies, the ED50 (dose at which 50% inhibition of lesion formation occurs) is determined by probit analysis according to Finney.

[2] = system: gastric secretion; experiment: Gastric secretion in the conscious gastric fistula rat; format: in vivo; conditions: oral, read-out: oral ED50, block of gastric secretion
Procedure: (§1) The compound of Formula I wherein R^4 is methyl and R^1, R^2 and R^3 are each hydrogen was also tested in several other ulcer models. […] The results in the above models are probably indicative of the lack of significant anti-secretory activity in the compound of the present invention.

[3] = system: HCl-induced gastric lesions; experiment: HCl-induced gastric lesions in the rat; format: in vivo; conditions: po, read-out: ED50 against HCl-induced gastric lesions
[4] = system: aspirin-stress gastric ulcer; experiment: Aspirin-stress gastric ulcer model in rats; format: in vivo; conditions: 100 mg/kg p.o.
Procedure: as §1

[5] = system: cysteamine-induced duodenal ulcer; experiment: Cysteamine-induced duodenal ulcer model in rats; format: in vivo; conditions: dosed seven times over 30 hours (40 mg/kg, p.o.)
Procedure: as §1

[6] = po, rat, read-out: Antiulcer Activity, % Inhibition (of lesion formation)

Q: Which inhibition in vivo at 30 mg/kg [1, 6] does the source give for CCCCc1ccc2ncc(-c3nnn[nH]3)c(=O)n2c1 here?
A: 54%

Q: CCc1cccn2c(=O)c(-c3nnn[nH]3)cnc12 was tested. Which inhibition in vivo at 50 mg/kg [1, 6] did it give?
A: 96%

Q: Cc1cccc2ncc(-c3nnn[nH]3)c(=O)n12 was tested. Which inhibition in vivo at 30 mg/kg [1, 6] did it give?
A: 75%

Q: Which results are given for Cc1cccn2c(=O)c(-c3nnn[nH]3)cnc12?
A: ED50 [2]: 27 mg/kg; ED50 [3]: 20.8 mg/kg; activity in aspirin-stress gastric ulcer model [4]: inactive; activity in cysteamine-induced duodenal ulcer model [5]: inactive

Q: CN/C(=N/CCSCc1nc[nH]c1C)NC#N [Cimetidine, reference compound] was tested. Which ED50 ([1]; Rattus norvegicus) did it give?
A: 235 mg/kg

Q: How did the inhibition in vivo at 30 mg/kg [1, 6] turn out when O=c1c(-c2nnn[nH]2)cnc2c3c(ccn12)CCCC3 was run?
A: 68%

Q: For CCCCC[C@H](O)/C=C/[C@H]1[C@H](O)CC(=O)[C@@H]1C/C=C\CCCC(=O)O [PGE2, reference compound], which ED50 ([1]; oral, rat, read-out: oral ED50) is on record?
A: 0.024 mg/kg

Q: How did the inhibition in vivo at 30 mg/kg [1, 6] turn out when CCCc1cccn2c(=O)c(-c3nnn[nH]3)cnc12 was run?
A: 77%

Q: sucralfate [reference compound] was tested. Which “oral ED50” value ([1]; oral, rat) did it give?
A: 21 mg/kg

Q: With Cc1ccn2c(=O)c(-c3nnn[nH]3)cnc2c1 as the compound, how does the inhibition in vivo at 30 mg/kg [1, 6] read?
A: 70%

Q: With O=c1c(-c2nnn[nH]2)cnc2ccc(Cl)cn12 as the compound, how does the inhibition in vivo at 12.6 mg/kg ([1]; po, 12.6 mg/kg p.o., rat, read-out: Antiulcer Activity, % Inhibition (of lesion formation)) read?
A: 93%

Q: Cc1ccc2ncc(-c3nnn[nH]3)c(=O)n2c1 was tested. Which inhibition in vivo at 30 mg/kg [1, 6] did it give?
A: 79%

Q: With Cc1cccn2c(=O)c(-c3nnn[nH]3)cnc12 [drawing 30] as the compound, how does the inhibition in vivo at 30 mg/kg [1, 6] read?
A: 88%

Q: What about the ED50 ([1]; po, rat, table footnote, read-out: ED50 (dose at which 50% inhibition of lesion formation occurs)) of the same compound?
A: 0.3 mg/kg

Q: With CCCCc1cccn2c(=O)c(-c3nnn[nH]3)cnc12 as the compound, how does the inhibition in vivo at 50 mg/kg [1, 6] read?
A: 41%

Q: For Cc1cc(C)c2ncc(-c3nnn[nH]3)c(=O)n2c1, which inhibition in vivo at 30 mg/kg [1, 6] is on record?
A: 92%

— US4457932A, “Anti-ulcer agents” (Bristol-Myers Company, priority 1983, dated 1984)
